# Measured values as given in paper PMC7502707, “Characterization and validation of a preventative therapy for hypertrophic cardiomyopathy in a murine model of the disease” (Proceedings of the National Academy of Sciences of the …, 2020).
# What was measured:
# [1] = system: wt and cTnI-G203S cardiac myocytes; assay: Mitochondrial membrane potential (JC-1) after in vitro peptide exposure; format: cell-based, mouse; settings: 10 μM BayK(−), calcium-free HBS
# Experimental: (§1) Fluorescence was measured on a Hamamatsu Orca ER digital camera attached to an inverted Nikon TE2000-U microscope. Fluorescent indicator 5,5′,6,6′-tetrachloro-1,1′,3,3′-tetraethylbenzimidazolylcarbocyanine iodide was used to measure Ψm in cardiac myocytes, as previously described (JC-1, Molecular Probes) ([61]). Autofluorescence was used to measure flavoprotein oxidation in cardiac myocytes based on previously described methods ([13], [29], [62]). Responses to drugs were reported as a percentage increase from the basal average. Detailed methods are provided in SI Appendix.
# Supporting Materials and Methods
# Isolation of ventricular myocytes
# Myocytes were isolated from wt and cTnI-G203S mice. Animals were anesthetized with pentobarbitone sodium (240 mg/kg) via intraperitoneal injection prior to excision of the heart. Cells were isolated as previously described (1-3). Mouse hearts were excised, cannulated onto a Langendorff apparatus via the aorta, and perfused with Krebs-Henseleit Buffer (KHB) containing […]
# O2/CO2 at 37°C) for 4 min at 37°C. Hearts were then perfused with KHB supplemented with 2.4 mg/ml collagenase B for 3 min, followed by a further 8 min perfusion in the presence of 40 μM calcium. Following perfusion, aorta and atria were removed then ventricles teased apart and triturated to dissociate myocytes into suspension. Myocyte suspension was spun at 500 RPM for 3 min, supernatant discarded, and myocytes resuspended in calcium free Hepes-Buffered Solution […]
# Hepes and 2 glutamine (pH = 7.4 at 37°C) in the presence or absence of 3 mM EGTA (for 0 mM calcium experiments). For calcium containing experiments, calcium was titrated back to achieve a final extracellular concentration of 1.8 mM. […]
# Axopatch 200B voltage-clamp amplifier (Molecular Devices) with a Digidata 1440A interface and pClamp10.5 software (Molecular Devices). A Ag/AgCl electrode was used to ground the bath. Once the whole-cell configuration was achieved, the holding potential was set at –80 mV. […]
# For calcium transient studies, microelectrodes contained (in mM): KCl 20, NaCl 10, MgCl2 2, CaCl2 0.03, potassium L-glutamate 120, EGTA 0.1, HEPES 5 and MgATP 5 (pH adjusted to 7.2 at 37°C with NaOH) supplemented with 2 µM Fura-2 AM (Fura-2, Molecular Probes, Eugene, Oregon). […]
# NaCl 140, KCl 5.4, CaCl2 1, MgCl2 0.5, HEPES 5.5 and glucose 11 (pH adjusted to 7.6 with NaOH), […]
# Fluorescence was measured on a Hamamatsu Orca ER digital camera attached to an inverted Nikon TE2000-U microscope. […]
# Additionally, individual 580 nm and 535 nm wavelength signals were assessed in each experiment to determine whether the fluorescent indicator was accurately measuring Ψm. […] Ratiometric JC-1 or flavoprotein fluorescent signals were quantified by manually tracing myocytes and subtracting an equivalent background region […]
# [2] = system: myocytes isolated from wt and cTnI-G203S mice; assay: Flavoprotein oxidation in myocytes isolated from treated mice; format: in vivo, mouse; settings: myocytes from precardiomyopathic cTnI-G203S mice treated 10 μM i.p. 3×/wk/5 wk from 20 wk
# [3] = system: wt and cTnI-G203S cardiac myocytes; design: method as in PMID 19166857, PMID 24969422, PMID 24958783; settings: cited from earlier work
# [4] = system: wt and cTnI-G203S cardiac myocytes; assay: Mitochondrial flavoprotein oxidation (autofluorescence) after in vitro peptide exposure; format: cell-based, mouse; settings: 10 μM BayK(−)
# Experimental: as §1, with “Appendix. […]” for “Appendix.”
# Autofluorescence […]
# was used to measure flavoprotein oxidation in cardiac myocytes based on previously described methods (ex = 480 nm, em = 535 nm, interval = 1 min, exposure = 1.5 seconds) (4, 6, 7). Carbonyl cyanide-4-(trifluoromethoxy)phenylhydrazone (FCCP, 50 μM, mitochondrial electron transport chain uncoupler) was added at the end of each experiment to increase flavoprotein oxidation confirming signal was mitochondrial in origin. Ratiometric JC-1 or flavoprotein fluorescent signals were quantified by manually tracing myocytes and subtracting an equivalent background region […]
# Responses to drugs were reported as a percentage increase from the basal average. […]
# (10). Cardiac myocytes were treated with relevant drugs in 96 well plates. MTT was added to each well to a final concentration of 0.5 mg/ml and the rate of the increase in absorbance immediately measured using a spectrophotometer at 37°C (PowerWave XS, 570 nm, reference wavelength of 620 nm). The rate of the increase in absorbance in response to treatments was expressed as a percentage of the rate of the increase prior to the addition of treatments. Each n represents number of replicates for each treatment group from cardiac myocytes isolated from a total of 6 wt (AID[S]- TAT), 4 cTnI-G203S (AID[S]-TAT), and 3 (AID-TAT) mice.
# Immunoblot of ICa-L protein
# [5] = cTnI-G203S myocytes, 1 μM peptide in vitro
# [6] = cTnI-G203S myocytes, 10 μM peptide in vitro
# [7] = wt myocytes, 1 μM peptide in vitro
# [8] = wt myocytes, 10 μM peptide in vitro
sequence,measurement,setting,value
QQLEEDLKGYLDWITQAE [AID-TAT],increase in Ψm (JC-1) in response to BayK(−),[1]; [5],attenuated the response
same,increase in Ψm (JC-1) in response to BayK(−),[1]; [6],significantly attenuated the response
same,increase in Ψm (JC-1) in response to BayK(−),[1]; [7],attenuated the response in cTnI-G203S but not wt myocytes
same,increase in Ψm (JC-1) in response to BayK(−),[1]; [8],significantly attenuated the response
same,increase in flavoprotein oxidation following BayK(−),[2],reduced this response to a level comparable to that observed in wt myocytes
same,elevated Ψm in response to activation of ICa-L,[3],attenuates elevated Ψm
same,increase in flavoprotein oxidation in response to BayK(−),[4]; [5],attenuated the response
same,increase in flavoprotein oxidation in response to BayK(−),[4]; [6],significantly attenuated the response
same,increase in flavoprotein oxidation in response to BayK(−),[4]; [7],attenuated the response in cTnI-G203S but not wt myocytes
same,increase in flavoprotein oxidation in response to BayK(−),[4]; [8],significantly attenuated the response
